Experimental data published in patent publication US6620961B1, “Biarylalkylenecarbamic acid derivatives and bacteriocides for agricultural and horticultural use” (Kumiai Chemical Industry Co., Ltd., priority 1997, dated 2003).

Legend:
[1] = tested on: Venturia inaequalis; test: Test for Preventive Effect on Apple Scab; type: in vivo; set-up: key: A: No diseased area; B: Diseased area of less than 25%; C: Diseased area of at least 25% but less than 50%; Diseased area of at least 50%; settings: 14 days after inoculation; for Evaluation (diseased areas of the upper two of the inoculated leaves): apple seedlings, wettable powder at 500 ppm active ingredient, preventive; for Evaluation (diseased area of the upper two inoculated leaves): apple seedlings (Kogyoku), 500 ppm active ingredient, 20 ml per pot
Method: [table] Test for Preventive Effect on Apple Scab 5 apple seeds (variety: Kogyoku) were sown in each 9 cm×9 cm polyvinyl chloride pot and grown in a greenhouse for 20 days. […] Then, the seedlings were inoculated with Venturia inaequalis spores in suspension by spraying and immediately placed in a moist chamber at 22° C. for 48 hours. Thereafter, the seedlings were placed in a greenhouse for development of the disease. 14 days after the inoculation, the diseased areas of the upper two of the inoculated leaves were observed and evaluated on the basis of the standards shown in Table 59.

[2] = tested on: Erysiphe graminis; test: Test for Preventive Effect on Wheat Powdery Mildew; type: in vivo; set-up: key: A: No diseased area; B: Diseased area of less than 25%; C: Diseased area of at least 25% but less than 50%; Diseased area of at least 50%; settings: wheat seedlings (Norin-61-go), 500 ppm active ingredient, 10 ml per pot, 10 days after inoculation
Method: [table] Test for Preventive Effect on Wheat Powdery Mildew 9 wheat seeds (variety: […] Then, the seedlings were inoculated with […] graminis spores in suspension and placed in a greenhouse at 25 to 30° C. 10 days after the inoculation, the total diseases area of the first leaves in each pot was observed and evaluated on the basis of the standards shown in Table 59. The results are shown in Tables 67 to 71.

Row | Compound | Evaluation (diseased areas of the upper two of the inoculated leaves) [1] | Evaluation (total diseased area of the first leaves in each pot) [2] | Evaluation (diseased area of the upper two inoculated leaves) [1]
1 | COCN(Cc1cccc(-c2ccccc2Cl)c1)C(=O)OC [1-202] | A | A | –
2 | COC(=O)NCc1cccc(-c2ccc(F)c(Cl)c2)c1 [1-122] | A | A | –
3 | COC(=O)NCc1ccc(F)c(-c2ccc(Cl)cc2)c1 [2-21] | A | B (Diseased area of less than 25%) | –
4 | CCCN(Cc1cccc(-c2ccccc2)c1)C(=O)OC [1-166] | B (Diseased area of less than 25%) | B (Diseased area of less than 25%) | –
5 | COC(=O)NCc1cc(C)cc(-c2ccc(Cl)cc2)c1 [2-95] | A | A | –
6 | COCN(Cc1cccc(-c2ccc(C)cc2)c1)C(=O)OC [1-195] | A | A | –
7 | COC(=O)NCc1cccc(-c2ccccc2Cl)c1 [1-2] | A | A | –
8 | CCN(Cc1cccc(-c2ccccc2)c1)C(=O)OC [1-165] | A | B (Diseased area of less than 25%) | –
9 | CCCCOC(=O)NCc1cccc(-c2ccccc2)c1 [1-148] | – | B (Diseased area of less than 25%) | –
10 | COCN(Cc1cccc(-c2ccc(OC)cc2)c1)C(=O)OC [1-198] | A | A | –
11 | COC(=O)NCc1cc(-c2ccc(C(C)=O)cc2)ccc1Cl [2-451] | – | – | B (Diseased area of less than 25%)
12 | COC(=O)NCc1cc(-c2ccc(F)c(F)c2)ccc1Cl [2-461] | – | A | A
13 | COC(=O)N(Cc1cccc(-c2cccc(Cl)c2)c1)OC [1-275] | A | A | –
14 | C=CCN(Cc1cccc(-c2ccccc2)c1)C(=O)OC [1-168] | A | A | –
15 | CCc1cccc(-c2cccc(CNC(=O)OC)c2)c1 [1-13] | A | A | –
16 | COC(=O)NCc1cccc(-c2ccc(C(C)C)cc2)c1 [1-18] | A | A | –
17 | COCN(Cc1cccc(-c2ccccc2)c1)C(=O)OC [1-192, Methyl N-methoxymethyl-N-(3-phenylbenzyl)carbamate] | A | A | –
18 | CN(C)C(=O)NCc1cccc(-c2ccccc2)c1 [1-262] | B (Diseased area of less than 25%) | – | –
19 | C#CCN(Cc1cccc(-c2ccccc2)c1)C(=O)OC [1-178, Methyl N-(3-phenylbenzyl)-N-(2-propynyl)carbamate] | A | A | –
20 | COC(=O)NCc1cc(-c2ccc(F)c(Cl)c2)ccc1Cl [2-465] | – | A | A
21 | COC(=O)NCc1cccc(-c2ccc(Cl)cc2Cl)c1 [1-117] | A | – | –
22 | COC(=O)NCc1cccc(-c2ccc(OC(F)(F)F)cc2)c1 [1-72] | A | A | –
23 | COCN(Cc1cccc(-c2cccc(C)c2)c1)C(=O)OC [1-194] | A | A | –
24 | COC(=O)N(Cc1cccc(-c2cccc(C(F)(F)F)c2)c1)OC [1-277] | A | A | –
25 | COC(=O)NCc1ccc(F)c(-c2cccc(C)c2)c1 [2-22] | A | B (Diseased area of less than 25%) | –
26 | COC(=O)NC(C)c1cccc(-c2ccc(Cl)cc2Cl)c1 (racemic) [3-18] | – | A | A

Row | Compound | Evaluation (diseased areas of the upper two of the inoculated leaves) [1] | Evaluation (total diseased area of the first leaves in each pot) [2] | Evaluation (diseased area of the upper two inoculated leaves) [1]
27 | COCN(Cc1cccc(-c2ccccc2C)c1)C(=O)OC [1-193] | A | B (Diseased area of less than 25%) | –
28 | CCC(NC(=O)OC)c1cccc(-c2ccc(C)cc2)c1 (racemic) [3-107] | – | B (Diseased area of less than 25%) | B (Diseased area of less than 25%)
29 | CCOC(=O)NCc1cccc(-c2ccccc2)c1 [1-146] | B (Diseased area of less than 25%) | B (Diseased area of less than 25%) | –
30 | CCC(NC(=O)OC)c1cccc(-c2ccc(Cl)cc2)c1 (racemic) [3-105] | – | B (Diseased area of less than 25%) | –
31 | COC(=O)NC(C)c1cccc(-c2ccc(C)cc2)c1 (racemic) [3-7] | – | A | A
32 | CCc1ccc(-c2cccc(CNC(=O)OC)c2)cc1 [1-14] | A | B (Diseased area of less than 25%) | –
33 | COC(=O)NC(C)c1cc(-c2ccccc2)ccc1F (racemic) [3-26] | – | B (Diseased area of less than 25%) | A
34 | COC(=O)NCc1cc(C)cc(-c2ccc(C)cc2)c1 [2-97] | A | A | –
35 | COC(=O)NCc1cccc(-c2cccc(C(C)C)c2)c1 [1-17] | A | B (Diseased area of less than 25%) | –
36 | COC(=O)NC(C)c1cc(-c2ccc(C)cc2)ccc1F (racemic) [3-32] | – | B (Diseased area of less than 25%) | B (Diseased area of less than 25%)
37 | COC(=O)NCc1cccc(-c2ccc3ccccc3c2C)c1 [6-1] | – | B (Diseased area of less than 25%) | A
38 | COC(=O)NCc1cccc(-c2cccc(F)c2)c1 [1-6] | A | A | –
39 | COC(=O)NCc1cc(-c2ccc(C(F)(F)F)cc2)ccc1OC [2-344] | – | – | A
40 | COC(=O)NC(C)c1cccc(-c2ccc(C(F)(F)F)cc2)c1 (racemic) [3-17] | – | A | A
41 | COCN(Cc1cccc(-c2ccc(F)cc2)c1)C(=O)OC [1-201] | A | A | –
42 | COC(=O)N(Cc1cccc(-c2ccccc2)c1C)OC [4-22, Methyl N-methoxy-N-(2-methyl-3-phenylbenzyl)carbamate] | – | A | A
43 | COC(=O)NCc1cccc(-c2ccccc2C)c1 [1-10] | A | A | –
44 | COC(=O)N(C)Cc1cccc(-c2ccccc2)c1 [1-163] | A | A | –
45 | COC(=O)NCc1ccc(F)c(-c2ccccc2)c1 [2-17] | A | B (Diseased area of less than 25%) | –
46 | COC(=O)NCc1cc(-c2ccc(C(C)C)cc2)ccc1F [2-114] | A | A | –
47 | COC(=O)NCc1cccc(-c2ccc(C)c([N+](=O)[O-])c2)c1 [1-137] | A | – | –
48 | COC(=O)NCc1cccc(-c2ccc(F)c(F)c2)c1 [1-120] | A | A | –
49 | COC(=O)NCc1cccc(-c2ccccc2OC)c1 [1-40] | A | A | –
50 | CCc1ccc(-c2ccc(F)c(CNC(=O)OC)c2)cc1 [2-112] | A | B (Diseased area of less than 25%) | –
51 | COC(=O)N(Cc1cccc(-c2ccccc2)c1)OC [1-264] | A | A | –
52 | CCC(NC(=O)OC)c1cccc(-c2ccccc2)c1 (racemic) [3-101] | – | B (Diseased area of less than 25%) | –
